Target: T1, CK1α (Homo sapiens, UniProt P48729+Q96SW2)
T1 construct: expressed in transfected cells
Assay: CK1α ePL degradation assay in MDS-L cells
Assay type: cell-based
Conditions: MDS-L cells expressing ePL-tagged CK1α; for DC50: concentration giving 50% CK1α degradation vs DMSO control; for Y: lowest measured CK1α level normalized to DMSO control
Outline: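 MDS-L cells treated with compound in a 10-point, 3-fold series from 10 μM to 0.0005 μM at 37° C, 5% CO2 for the indicated times; CK1α measured by InCELL Hunter enzyme-fragment luminescence. Levels normalized to DMSO as percent of control; lowest level reached taken as Y value.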

T1 sequence (P48729 whole entry): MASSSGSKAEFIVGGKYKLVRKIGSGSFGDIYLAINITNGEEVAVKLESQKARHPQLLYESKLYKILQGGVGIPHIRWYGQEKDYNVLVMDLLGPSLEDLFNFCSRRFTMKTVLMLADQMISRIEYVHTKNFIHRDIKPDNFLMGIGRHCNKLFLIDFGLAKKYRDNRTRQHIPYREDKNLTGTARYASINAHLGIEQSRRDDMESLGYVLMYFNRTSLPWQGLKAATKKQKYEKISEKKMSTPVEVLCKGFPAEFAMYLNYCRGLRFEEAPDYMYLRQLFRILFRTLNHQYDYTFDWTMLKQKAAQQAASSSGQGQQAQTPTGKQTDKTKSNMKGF
T1 sequence (Q96SW2 whole entry): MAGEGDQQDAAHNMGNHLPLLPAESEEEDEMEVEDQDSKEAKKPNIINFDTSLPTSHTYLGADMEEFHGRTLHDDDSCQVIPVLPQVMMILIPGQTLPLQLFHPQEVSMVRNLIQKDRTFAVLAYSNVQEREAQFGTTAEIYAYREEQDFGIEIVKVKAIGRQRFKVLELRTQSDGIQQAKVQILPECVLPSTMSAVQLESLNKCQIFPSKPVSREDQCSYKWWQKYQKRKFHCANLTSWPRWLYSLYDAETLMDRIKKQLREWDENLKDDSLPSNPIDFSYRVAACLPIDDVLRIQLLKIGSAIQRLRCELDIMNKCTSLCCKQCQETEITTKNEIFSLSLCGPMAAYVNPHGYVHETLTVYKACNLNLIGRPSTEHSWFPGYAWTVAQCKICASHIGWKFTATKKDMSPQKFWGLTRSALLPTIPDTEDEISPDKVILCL
T1 sequence (Q16531 whole entry partner): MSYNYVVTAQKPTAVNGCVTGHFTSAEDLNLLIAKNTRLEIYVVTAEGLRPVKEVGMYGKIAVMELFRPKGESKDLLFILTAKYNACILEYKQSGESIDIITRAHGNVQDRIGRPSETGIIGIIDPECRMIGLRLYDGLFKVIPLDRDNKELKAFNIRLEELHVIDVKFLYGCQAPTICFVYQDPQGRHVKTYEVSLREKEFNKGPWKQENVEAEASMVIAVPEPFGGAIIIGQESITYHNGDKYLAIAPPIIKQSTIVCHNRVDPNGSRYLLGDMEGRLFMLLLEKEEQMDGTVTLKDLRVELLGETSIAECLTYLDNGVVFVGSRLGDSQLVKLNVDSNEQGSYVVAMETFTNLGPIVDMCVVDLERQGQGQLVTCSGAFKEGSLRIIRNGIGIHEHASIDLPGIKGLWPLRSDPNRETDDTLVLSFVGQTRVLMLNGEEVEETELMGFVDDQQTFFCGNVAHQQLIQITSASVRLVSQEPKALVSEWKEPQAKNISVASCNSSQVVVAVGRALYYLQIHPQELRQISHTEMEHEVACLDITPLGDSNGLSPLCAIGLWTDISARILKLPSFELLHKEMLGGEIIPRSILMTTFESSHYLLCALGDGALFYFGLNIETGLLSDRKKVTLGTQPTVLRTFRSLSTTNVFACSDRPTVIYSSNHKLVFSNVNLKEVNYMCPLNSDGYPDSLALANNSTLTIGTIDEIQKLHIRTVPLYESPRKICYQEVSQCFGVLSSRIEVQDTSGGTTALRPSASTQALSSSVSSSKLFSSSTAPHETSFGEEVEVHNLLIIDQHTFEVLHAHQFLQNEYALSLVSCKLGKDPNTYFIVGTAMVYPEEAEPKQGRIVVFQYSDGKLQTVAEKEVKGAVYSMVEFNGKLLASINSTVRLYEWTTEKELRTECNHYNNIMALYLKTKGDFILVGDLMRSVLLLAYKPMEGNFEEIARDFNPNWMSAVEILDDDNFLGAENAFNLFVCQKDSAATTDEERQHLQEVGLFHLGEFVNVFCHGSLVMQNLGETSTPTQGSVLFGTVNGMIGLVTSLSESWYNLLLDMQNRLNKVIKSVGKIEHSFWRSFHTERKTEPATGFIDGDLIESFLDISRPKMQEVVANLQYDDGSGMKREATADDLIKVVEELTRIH

Structure (SMILES)	DC50 [nM]	Y
CC(C)(O)C12CC([C@@H](NC(=O)c3ccc4c(c3)CN(C3CCC(=O)NC3=O)C4=O)C(F)(F)F)(C1)C2 (stereo partly drawn) [Example 165, 2-(2,6-dioxopiperidin-3-yl)-1-oxo-N-((R)-2,2,2-trifluoro-1-(3-(2-hydroxypropan-2-yl)bicyclo[1.1.1]pentan-1-yl)ethyl)isoindoline-5-carboxamide]	< 100	* (a Y value (shown as *) of 0<Y≤20%)
Cc1ccccc1[C@@H](CC(F)(F)F)NC(=O)c1ccc2c(c1)CN(C1CCC(=O)NC1=O)C2=O (stereo partly drawn) [Example 196, 2-(2,6-dioxopiperidin-3-yl)-1-oxo-N-((R)-3,3,3-trifluoro-1-o-tolylpropyl)isoindoline-5-carboxamide]	< 100	* (a Y value (shown as *) of 0<Y≤20%)
O=C1CCC(N2Cc3cc(C(=O)N[C@H](c4ccc(Cl)cc4F)C(F)(F)F)ccc3C2=O)C(=O)N1 (stereo partly drawn) [Example 79, N-((R)-1-(4-chloro-2-fluorophenyl)-2,2,2-trifluoroethyl)-2-(2,6-dioxopiperidin-3-yl)-1-oxoisoindoline-5-carboxamide]	< 100	* (a Y value (shown as *) of 0<Y≤20%)
O=C1CCC(N2Cc3cc(C(=O)N[C@H](c4ccc(F)cc4C(F)(F)F)C(F)(F)F)ccc3C2=O)C(=O)N1 (stereo partly drawn) [Example 77, 2-(2,6-dioxopiperidin-3-yl)-1-oxo-N-((R)-2,2,2-trifluoro-1-(4-fluoro-2-(trifluoromethyl)phenyl)ethyl)isoindoline-5-carboxamide]	< 100	* (a Y value (shown as *) of 0<Y≤20%)
CC(C)(C)[C@@H](NC(=O)c1ccc2c(c1)CN(C1CCC(=O)NC1=O)C2=O)C(F)(F)F (stereo partly drawn) [Example 34, 2-(2,6-dioxopiperidin-3-yl)-1-oxo-N-((R)-1,1,1-trifluoro-3,3-dimethylbutan-2-yl)isoindoline-5-carboxamide]	100 to 500	** (a Y value (shown as**) of 20%<Y≤35%)
O=C1CCC(N2Cc3c(ccc(C(=O)N[C@H](c4cccc(Cl)c4)C(F)(F)F)c3F)C2=O)C(=O)N1 (stereo partly drawn) [Example 107, N-((R)-1-(3-chlorophenyl)-2,2,2-trifluoroethyl)-2-(2,6-dioxopiperidin-3-yl)-4-fluoro-1-oxoisoindoline-5-carboxamide]	100 to 500	** (a Y value (shown as**) of 20%<Y≤35%)

Now from value to molecule:

DC50 [nM]	Y	Structure (SMILES)
500 to 1000	** (a Y value (shown as**) of 20%<Y≤35%)	O=C1CCC(N2Cc3cc(C(=O)N[C@@H](CC(F)(F)F)c4ccc(Cl)cc4)ccc3C2=O)C(=O)N1 (stereo partly drawn) [Example 149, N-((S)-1-(4-chlorophenyl)-3,3,3-trifluoropropyl)-2-(2,6-dioxopiperidin-3-yl)-1-oxoisoindoline-5-carboxamide]
< 100	* (a Y value (shown as *) of 0<Y≤20%)	O=C1CC[C@@H](N2Cc3cc(C(=O)N[C@H](c4ccc(F)cc4)C(F)(F)F)ccc3C2=O)C(=O)N1 [Example 104, 2-((R)-2,6-dioxopiperidin-3-yl)-1-oxo-N-((R)-2,2,2-trifluoro-1-(4-fluorophenyl)ethyl)isoindoline-5-carboxamide]
< 100	* (a Y value (shown as *) of 0<Y≤20%)	O=C1CCC(N2Cc3cc(C(=O)N[C@H](c4ccc(CN5CCCC5)cc4)C(F)(F)F)ccc3C2=O)C(=O)N1 (stereo partly drawn) [Example 180, 2-(2,6-dioxopiperidin-3-yl)-1-oxo-N-((R)-2,2,2-trifluoro-1-(4-(pyrrolidin-1-ylmethyl)phenyl)ethyl)isoindoline-5-carboxamide]
< 100	* (a Y value (shown as *) of 0<Y≤20%)	N#Cc1ccc([C@@H](NC(=O)c2ccc3c(c2)CN(C2CCC(=O)NC2=O)C3=O)C(F)(F)F)cc1 (stereo partly drawn) [Example 63, N-((R)-1-(4-cyanophenyl)-2,2,2-trifluoroethyl)-2-(2,6-dioxopiperidin-3-yl)-1-oxoisoindoline-5-carboxamide]
